Measured values published in patent publication US11208412B2 (DAEGU-GYEONGBUK MEDICAL INNOVATION FOUNDATION, priority 2017, dated 2021).

What was measured:
Assay in all cases: Kinase selectivity, DiscoverX scanMAX Kinase assay panel (% control)
Type in all cases: binding
[1] = biological target: T1, kinases of the scanMAX Kinase assay panel (Homo sapiens, UniProt P19784); details: CSNK2A2; 1 uM
T1 construct: purchased DiscoverX Co. (contract measurement) scanMAX Kinase assay panel
Summary of the method: (§1)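 Single-point screen, 1 uM cpd in DMSO. % ctrl = (cpd − pos ctrl)/(neg ctrl − pos ctrl)×100; pos ctrl = 0%, DMSO neg ctrl = 100%. Hit cutoff <35%.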

[2] = biological target: T2, kinases of the scanMAX Kinase assay panel (Homo sapiens, UniProt Q7L7X3); details: kinase TAOK1; 1 uM in DMSO
T2 construct: purchased DiscoverX Co. (contract measurement) scanMAX Kinase assay panel
T2 sequence (Q7L7X3 1-1001): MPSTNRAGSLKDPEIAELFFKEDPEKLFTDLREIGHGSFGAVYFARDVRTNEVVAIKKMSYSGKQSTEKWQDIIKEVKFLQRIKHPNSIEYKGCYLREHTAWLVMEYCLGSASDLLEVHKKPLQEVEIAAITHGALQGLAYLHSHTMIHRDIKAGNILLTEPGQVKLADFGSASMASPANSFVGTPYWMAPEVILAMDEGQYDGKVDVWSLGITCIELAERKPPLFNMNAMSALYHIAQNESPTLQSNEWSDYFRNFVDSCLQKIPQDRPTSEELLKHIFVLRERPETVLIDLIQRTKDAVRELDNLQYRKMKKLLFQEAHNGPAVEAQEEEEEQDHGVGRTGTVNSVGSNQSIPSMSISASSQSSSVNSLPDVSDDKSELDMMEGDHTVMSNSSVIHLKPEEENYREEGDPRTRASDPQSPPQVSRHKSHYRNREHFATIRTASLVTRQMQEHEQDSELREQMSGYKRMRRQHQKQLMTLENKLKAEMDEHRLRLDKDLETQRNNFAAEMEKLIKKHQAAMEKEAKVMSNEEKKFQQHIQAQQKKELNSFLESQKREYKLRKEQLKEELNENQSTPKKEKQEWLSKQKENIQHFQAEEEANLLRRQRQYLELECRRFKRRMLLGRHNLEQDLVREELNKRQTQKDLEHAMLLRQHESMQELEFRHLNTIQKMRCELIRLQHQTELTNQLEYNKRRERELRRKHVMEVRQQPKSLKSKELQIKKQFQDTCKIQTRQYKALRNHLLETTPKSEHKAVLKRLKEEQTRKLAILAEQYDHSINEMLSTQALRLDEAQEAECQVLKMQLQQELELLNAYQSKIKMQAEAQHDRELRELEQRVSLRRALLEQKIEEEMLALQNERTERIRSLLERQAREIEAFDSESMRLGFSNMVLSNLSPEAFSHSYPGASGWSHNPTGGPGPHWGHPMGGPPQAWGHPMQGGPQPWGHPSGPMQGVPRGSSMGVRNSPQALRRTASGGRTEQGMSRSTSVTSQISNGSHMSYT
Summary of the method: as §1

[3] = biological target: T3, kinases of the scanMAX Kinase assay panel (Homo sapiens, UniProt Q96PY6); details: NEK1; 1 uM
T3 construct: purchased DiscoverX Co. (contract measurement) scanMAX Kinase assay panel
T3 sequence (Q96PY6 1-1258): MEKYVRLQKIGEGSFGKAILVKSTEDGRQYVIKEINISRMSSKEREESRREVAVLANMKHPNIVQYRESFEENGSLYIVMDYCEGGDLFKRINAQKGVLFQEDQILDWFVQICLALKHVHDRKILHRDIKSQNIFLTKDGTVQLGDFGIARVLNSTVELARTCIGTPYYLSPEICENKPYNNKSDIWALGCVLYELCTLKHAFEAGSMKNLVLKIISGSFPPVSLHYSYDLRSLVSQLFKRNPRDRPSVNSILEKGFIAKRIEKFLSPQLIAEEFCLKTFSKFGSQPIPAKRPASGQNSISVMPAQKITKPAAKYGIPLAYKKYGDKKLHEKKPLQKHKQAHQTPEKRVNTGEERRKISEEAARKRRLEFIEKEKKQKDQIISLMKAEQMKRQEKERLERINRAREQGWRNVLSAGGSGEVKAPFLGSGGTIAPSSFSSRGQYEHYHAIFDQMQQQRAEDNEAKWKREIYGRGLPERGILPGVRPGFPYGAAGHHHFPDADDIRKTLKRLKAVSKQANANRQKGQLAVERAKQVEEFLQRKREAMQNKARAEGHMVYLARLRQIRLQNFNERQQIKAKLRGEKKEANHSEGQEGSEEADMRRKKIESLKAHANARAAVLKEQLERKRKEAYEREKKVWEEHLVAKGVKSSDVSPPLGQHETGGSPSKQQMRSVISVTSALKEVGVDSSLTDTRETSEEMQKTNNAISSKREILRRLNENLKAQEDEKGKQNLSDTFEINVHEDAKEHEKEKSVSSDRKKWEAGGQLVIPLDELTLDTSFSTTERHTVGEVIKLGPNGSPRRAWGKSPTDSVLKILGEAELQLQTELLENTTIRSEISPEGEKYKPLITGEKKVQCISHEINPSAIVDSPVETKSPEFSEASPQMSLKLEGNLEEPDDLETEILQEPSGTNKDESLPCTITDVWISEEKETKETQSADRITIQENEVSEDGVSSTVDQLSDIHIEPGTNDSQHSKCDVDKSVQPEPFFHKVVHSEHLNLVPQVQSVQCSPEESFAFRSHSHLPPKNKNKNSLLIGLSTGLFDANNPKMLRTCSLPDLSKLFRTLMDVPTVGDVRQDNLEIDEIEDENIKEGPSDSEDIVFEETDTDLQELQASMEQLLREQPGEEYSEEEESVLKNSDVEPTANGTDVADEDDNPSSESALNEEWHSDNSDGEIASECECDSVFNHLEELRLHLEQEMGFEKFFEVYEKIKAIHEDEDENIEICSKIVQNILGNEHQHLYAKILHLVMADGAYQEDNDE
Summary of the method: as §1

[4] = biological target: T4, kinases of the scanMAX Kinase assay panel (Homo sapiens, UniProt Q9UQM7); details: CAMK2A; 1 uM
T4 construct: purchased DiscoverX Co. (contract measurement) scanMAX Kinase assay panel
T4 sequence (Q9UQM7 whole entry): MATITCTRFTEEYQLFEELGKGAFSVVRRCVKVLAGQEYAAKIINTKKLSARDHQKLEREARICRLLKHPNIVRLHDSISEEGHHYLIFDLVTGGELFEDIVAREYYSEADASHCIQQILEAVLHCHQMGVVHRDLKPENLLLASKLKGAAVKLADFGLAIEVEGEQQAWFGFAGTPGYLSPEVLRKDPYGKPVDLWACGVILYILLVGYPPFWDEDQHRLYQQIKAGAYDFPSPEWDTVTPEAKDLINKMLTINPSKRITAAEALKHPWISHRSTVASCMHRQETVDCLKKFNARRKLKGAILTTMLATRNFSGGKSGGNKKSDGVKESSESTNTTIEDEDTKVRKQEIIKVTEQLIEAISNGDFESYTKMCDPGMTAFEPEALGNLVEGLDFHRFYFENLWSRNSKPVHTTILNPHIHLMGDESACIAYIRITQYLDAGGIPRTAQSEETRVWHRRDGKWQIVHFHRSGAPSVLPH
Summary of the method: as §1

T1 sequence (P19784 whole entry): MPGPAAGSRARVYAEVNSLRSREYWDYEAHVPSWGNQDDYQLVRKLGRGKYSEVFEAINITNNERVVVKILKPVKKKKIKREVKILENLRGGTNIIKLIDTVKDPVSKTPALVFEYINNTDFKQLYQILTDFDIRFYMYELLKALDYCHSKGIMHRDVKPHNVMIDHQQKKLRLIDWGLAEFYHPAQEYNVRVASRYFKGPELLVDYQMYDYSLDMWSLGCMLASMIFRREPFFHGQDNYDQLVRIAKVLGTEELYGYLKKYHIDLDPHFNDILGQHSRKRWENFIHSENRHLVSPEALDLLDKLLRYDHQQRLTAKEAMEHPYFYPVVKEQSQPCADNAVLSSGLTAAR

Compound `CNc1nc(Nc2ccc(C(=O)N3CCOCC3)cc2OC)nc2[nH]cc(C#N)c12` [Example 1, 2-((2-methoxy-4-(morpholine-4-carbonyl)phenyl)amino)-4-(methylamino)-7H-pyrrolo[2,3-d]pyrimidine-5-carbonitrile] has a remaining binding at 1 µM [1] of 76%, a remaining binding at 1 µM [2] of 73% and a remaining binding at 1 µM [3] of 94%. For the same compound, the remaining binding at 1 µM [4] was 60%.
Compound `CC1(Nc2nc(Nc3cnn([C@H]4CCN(C5COC5)C[C@@H]4F)c3Cl)nc3[nH]cc(C#N)c23)CC1` [Example 52, 2-((5-chloro-1-((3S,4S)-3-fluoro-1-(oxetane-3-yl)piperidine-4-yl)-1H-pyrazole-4-yl)amino)((1-methylcyclopropyl)amino)-7H-pyrrolo[2,3-d]pyrimidine-5-carbonitrile] has a remaining binding at 1 µM [1] of 11%, a remaining binding at 1 µM [2] of 6.5% and a remaining binding at 1 µM [3] of 80%. For the same compound, the remaining binding at 1 µM [4] was 28%.
`CCNc1nc(Nc2ccc(C(=O)N3CCC(N4CCOCC4)CC3)cc2OC)nc2[nH]cc(C(F)(F)F)c12` [Example 104, (4-((4-(ethylamino)-5-(trifluoromethyl)-7H-pyrrolo[2,3-d]pyrimidine-2-yl)amino)-3-methoxyphenyl)(4-morpholinopiperidine-1-yl)methanone] gave a remaining binding at 1 µM [1] of 95%, a remaining binding at 1 µM [2] of 85% and a remaining binding at 1 µM [3] of 93%. It also gave a remaining binding at 1 µM [4] of 39%.
